Test results: ChEMBL document CHEMBL1201861, “Genomics of Drug Sensitity in Cancer screening data, Wellcome Trust Sanger Institute”

Key:
Experiment in all cases: cells
D-392MG = format: functional, cell-based, Homo sapiens; settings: Homo sapiens, D-392MG
DK-MG = format: functional, cell-based, Homo sapiens; settings: Homo sapiens, DK-MG;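 note: growth inhibition of DK-MG cells, read out with a cell viability assay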
Description: SANGER: Inhibition of human DK-MG cell growth in a cell viability assay.

EC-GI-10 = format: functional, cell-based, Homo sapiens; settings: Homo sapiens, EC-GI-10
Description: SANGER: Inhibition of human EC-GI-10 cell growth in a cell viability assay.

EKVX = format: functional, cell-based, Homo sapiens; settings: Homo sapiens, EKVX;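 note: growth inhibition of human EKVX cells, read out with a cell viability assay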
Description: SANGER: Inhibition of human EKVX cell growth in a cell viability assay.

ES1 = format: functional, cell-based, Homo sapiens; settings: Homo sapiens, ES1;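 note: growth inhibition of ES1 cells, read out with a cell viability assay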
Description: SANGER: Inhibition of human ES1 cell growth in a cell viability assay.

GCIY = format: functional, cell-based, Homo sapiens; settings: Homo sapiens, GCIY;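 note: growth inhibition of the human GCIY cell line, read out by a cell viability assay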
Description: SANGER: Inhibition of human GCIY cell growth in a cell viability assay.

GCT = format: functional, cell-based, Homo sapiens; settings: Homo sapiens, GCT;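 note: GCT cell line proliferation inhibition, read out with a cell viability assay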
Description: SANGER: Inhibition of human GCT cell growth in a cell viability assay.

HCC1187 = format: functional, cell-based, Homo sapiens; settings: Homo sapiens, HCC1187;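 note: growth inhibition of HCC1187 cells, read out with a cell viability assay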
Description: SANGER: Inhibition of human HCC1187 cell growth in a cell viability assay.

HN = format: functional, cell-based, Homo sapiens; settings: Homo sapiens, HN
Description: SANGER: Inhibition of human HN cell growth in a cell viability assay.

HSC-3 = format: functional, cell-based, Homo sapiens; settings: Homo sapiens, HSC-3
Description: SANGER: Inhibition of human HSC-3 cell growth in a cell viability assay.

HT1197 = format: functional, cell-based, Homo sapiens, HT-1197; settings: Homo sapiens, HT1197
Description: SANGER: Inhibition of human HT-1197 cell growth in a cell viability assay.

HT-3 = format: functional, cell-based, Homo sapiens; settings: Homo sapiens, HT-3;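 note: growth inhibition measured with a cell viability readout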
Description: SANGER: Inhibition of human HT-3 cell growth in a cell viability assay.

HuTu80 = format: functional, cell-based, Homo sapiens, HUTU-80; settings: Homo sapiens, HuTu80;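 note: growth inhibition of HuTu80 human cells, determined with a cell viability readout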
Description: SANGER: Inhibition of human HUTU-80 cell growth in a cell viability assay.

KM12 = format: functional, cell-based, Homo sapiens; settings: Homo sapiens, KM12;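 note: KM12 cell growth inhibition, read out with a cell viability assay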
Description: SANGER: Inhibition of human KM12 cell growth in a cell viability assay.

KYSE-180 = format: functional, cell-based, Homo sapiens; settings: Homo sapiens, KYSE-180;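 note: growth inhibition of KYSE-180 cells, read out with a cell viability assay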
Description: SANGER: Inhibition of human KYSE-180 cell growth in a cell viability assay.

KYSE-520 cell line = format: functional, cell-based, Homo sapiens; settings: Homo sapiens, KYSE-520;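 note: growth inhibition of human KYSE-520 cells, read out with a viability assay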
Description: SANGER: Inhibition of human KYSE-520 cell growth in a cell viability assay.

L-428 = format: functional, cell-based; settings: Homo sapiens
Description: SANGER: Inhibition of human L-428 cell growth in a cell viability assay.

LAN-6 = format: functional, cell-based, Homo sapiens; settings: Homo sapiens, LAN-6;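 note: growth inhibition of LAN-6 cells, determined with a cell viability assay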
Description: SANGER: Inhibition of human LAN-6 cell growth in a cell viability assay.

LB1047-RCC = format: functional, cell-based, Homo sapiens; settings: Homo sapiens, LB1047-RCC;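 note: inhibition of cell growth, determined with a cell viability assay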
Description: SANGER: Inhibition of human LB1047-RCC cell growth in a cell viability assay.

LU-99A = format: functional, cell-based, Homo sapiens; settings: Homo sapiens, LU-99A;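 note: growth inhibition of LU-99A cells, read out with a cell viability assay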
Description: SANGER: Inhibition of human LU-99A cell growth in a cell viability assay.

ME-180 = format: functional, cell-based; settings: Homo sapiens;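 note: cell viability assay measuring growth inhibition of ME-180 cells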
Description: SANGER: Inhibition of human ME-180 cell growth in a cell viability assay.

MEG-01 = format: functional, cell-based; settings: Homo sapiens;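 note: growth inhibition of MEG-01 cells, read out by a cell viability assay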
Description: SANGER: Inhibition of human MEG-01 cell growth in a cell viability assay.

MOLT-16 = format: functional, cell-based; settings: Homo sapiens;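 note: growth inhibition of human MOLT-16 cells, read out with a cell viability assay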
Description: SANGER: Inhibition of human MOLT-16 cell growth in a cell viability assay.

NCI-H1770 = format: functional, cell-based; settings: Homo sapiens;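 note: growth inhibition of NCI-H1770 cells determined with a viability readout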
Description: SANGER: Inhibition of human NCI-H1770 cell growth in a cell viability assay.

NCI-H1838 = format: functional, cell-based, Homo sapiens; settings: Homo sapiens, NCI-H1838;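 note: growth inhibition of NCI-H1838 cells, determined with a cell viability readout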
Description: SANGER: Inhibition of human NCI-H1838 cell growth in a cell viability assay.

NCI-H2052 = format: functional, cell-based, Homo sapiens; settings: Homo sapiens, NCI-H2052;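 note: growth inhibition of NCI-H2052 cells, read out with a cell viability assay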
Description: SANGER: Inhibition of human NCI-H2052 cell growth in a cell viability assay.

NCI-H226 = format: functional, cell-based, Homo sapiens; settings: Homo sapiens, NCI-H226;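 note: cell viability read-out used to gauge growth inhibition of the cells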
Description: SANGER: Inhibition of human NCI-H226 cell growth in a cell viability assay.

NCI-H520 = format: functional, cell-based, Homo sapiens; settings: Homo sapiens, NCI-H520;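 note: growth inhibition of NCI-H520 cells, measured by a cell viability assay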
Description: SANGER: Inhibition of human NCI-H520 cell growth in a cell viability assay.

NCI-H526 = format: functional, cell-based; settings: Homo sapiens;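 note: growth inhibition of the human NCI-H526 cell line, measured by a cell viability assay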
Description: SANGER: Inhibition of human NCI-H526 cell growth in a cell viability assay.

NCI-H82 = format: functional, cell-based; settings: Homo sapiens;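 note: growth inhibition of NCI-H82 cells, measured with a cell viability readout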
Description: SANGER: Inhibition of human NCI-H82 cell growth in a cell viability assay.

OAW-28 = format: functional, cell-based, Homo sapiens; settings: Homo sapiens, OAW-28;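 note: growth inhibition of OAW-28 cells, read out with a cell viability assay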
Description: SANGER: Inhibition of human OAW-28 cell growth in a cell viability assay.

OE19 = format: functional, cell-based, Homo sapiens; settings: Homo sapiens, OE19;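 note: growth inhibition of OE19 cells, measured through a cell viability read-out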
Description: SANGER: Inhibition of human OE19 cell growth in a cell viability assay.

Panc1005 = format: functional, cell-based, Homo sapiens; settings: Homo sapiens, Panc1005;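 note: growth inhibition of human PANC-10-05 cells, measured by a cell viability assay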
Description: SANGER: Inhibition of human PANC-10-05 cell growth in a cell viability assay.

RERF-LC-MS = format: functional, cell-based, Homo sapiens; settings: Homo sapiens, RERF-LC-MS;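 note: growth inhibition of human RERF-LC-MS cells, read out by a cell viability assay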
Description: SANGER: Inhibition of human RERF-LC-MS cell growth in a cell viability assay.

SF-295 = format: functional, cell-based, Homo sapiens; settings: Homo sapiens, SF-295; read-out: IC50;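 note: growth inhibition of SF-295 cells, read out with a cell viability assay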
Description: SANGER: Inhibition of human SF295 cell growth in a cell viability assay.

SK-MEL3 = format: functional, cell-based, Homo sapiens, SK-MEL-3; settings: Homo sapiens, SK-MEL3;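 note: growth inhibition of human SK-MEL-3 cells, read out with a cell viability assay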
Description: SANGER: Inhibition of human SK-MEL-3 cell growth in a cell viability assay.

SK-N-FI = format: functional, cell-based, Homo sapiens; settings: Homo sapiens, SK-N-FI;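 note: cell viability assay measuring growth inhibition of human SK-N-FI cells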
Description: SANGER: Inhibition of human SK-N-FI cell growth in a cell viability assay.

SNB-75 = format: functional, cell-based, Homo sapiens; settings: Homo sapiens, SNB-75;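 note: cell viability assay measuring growth inhibition of human SNB-75 cells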
Description: SANGER: Inhibition of human SNB75 cell growth in a cell viability assay.

SW-620 = format: functional, cell-based, Homo sapiens; settings: Homo sapiens, SW-620;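 note: growth inhibition of human SW-620 cells, measured by a cell viability assay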
Description: SANGER: Inhibition of human SW620 cell growth in a cell viability assay.

SW948 = format: functional, cell-based, Homo sapiens; settings: Homo sapiens, SW948;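 note: growth inhibition of SW948 cells, read out with a cell viability assay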
Description: SANGER: Inhibition of human SW948 cell growth in a cell viability assay.

T84 = format: functional, cell-based, Homo sapiens; settings: Homo sapiens, T84;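 note: growth inhibition measured with a cell viability readout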
Description: SANGER: Inhibition of human T84 cell growth in a cell viability assay.

639-V = format: functional, cell-based, Homo sapiens; settings: Homo sapiens, 639-V;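 note: growth inhibition of 639-V cells, read out with a cell viability assay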
Description: SANGER: Inhibition of human 639-V cell growth in a cell viability assay.

A388 = format: functional, cell-based, Homo sapiens; settings: Homo sapiens, A388;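 note: growth inhibition of human A388 cells, read out with a cell viability assay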
Description: SANGER: Inhibition of human A388 cell growth in a cell viability assay.

A-431 = format: functional, cell-based, Homo sapiens; settings: Homo sapiens, A-431;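 note: growth inhibition of A-431 cells, determined with a cell viability read-out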
Description: SANGER: Inhibition of human A431 cell growth in a cell viability assay.

A673 = format: functional, cell-based, Homo sapiens; settings: Homo sapiens, A673;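 note: growth inhibition of human A673 cells, read out through a cell viability assay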
Description: SANGER: Inhibition of human A673 cell growth in a cell viability assay.

BPH-1 = format: functional, cell-based, Homo sapiens; settings: Homo sapiens, BPH-1;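 note: cell viability assay measuring growth inhibition of human BPH-1 cells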
Description: SANGER: Inhibition of human BPH-1 cell growth in a cell viability assay.

C8166 = format: functional, cell-based; settings: Homo sapiens;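 note: growth inhibition of human C8166 cells measured by a cell viability assay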
Description: SANGER: Inhibition of human C8166 cell growth in a cell viability assay.

U-118-MG = format: functional, cell-based, Homo sapiens; settings: Homo sapiens, U-118-MG
Description: SANGER: Inhibition of human U-118-MG cell growth in a cell viability assay.

U-87 MG = format: functional, cell-based, U-87MG ATCC; settings: Homo sapiens;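 note: growth inhibition of the cells measured with a viability assay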
Description: SANGER: Inhibition of human U-87-MG cell growth in a cell viability assay.

UACC-893 = format: functional, cell-based, Homo sapiens; settings: Homo sapiens, UACC-893
Description: SANGER: Inhibition of human UACC-893 cell growth in a cell viability assay.

CAMA-1 = format: functional, cell-based, Homo sapiens; settings: Homo sapiens, CAMA-1;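 note: growth inhibition of CAMA-1 cells, read out with a cell viability assay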
Description: SANGER: Inhibition of human CAMA-1 cell growth in a cell viability assay.

For `COC(=O)CNC(=O)C(=O)OC`, which IC50 (D-392MG) is on record?
The IC50 was 1570 µM.

And the IC50 (DK-MG)?
The IC50 was 526 µM.

What about the IC50 (EC-GI-10) of the same compound?
The IC50 was greater than 4000 µM.

And the IC50 (EKVX)?
The IC50 was 513 µM.

And the IC50 (ES1)?
The IC50 was 1260 µM.

What about the IC50 (GCIY) of the same compound?
Its IC50 is 109 µM.

What about the IC50 (GCT) of the same compound?
The IC50 was greater than 4000 µM.

What about the IC50 (HCC1187) of the same compound?
The IC50 was greater than 4000 µM.

And the IC50 (HN)?
The IC50 was 1030 µM.

What about the IC50 (HSC-3) of the same compound?
Its IC50 is 618 µM.

What about the IC50 (HT1197) of the same compound?
The IC50 was 315 µM.

And the IC50 (HT-3)?
The IC50 was 853 µM.

And the IC50 (HuTu80)?
The IC50 was 1260 µM.

What about the IC50 (KM12) of the same compound?
Its IC50 is 2240 µM.

What about the IC50 (KYSE-180) of the same compound?
Its IC50 is greater than 4000 µM.

What about the IC50 (KYSE-520 cell line) of the same compound?
The IC50 was 613 µM.

And the IC50 (L-428)?
The IC50 was 688 µM.

What about the IC50 (LAN-6) of the same compound?
Its IC50 is 2080 µM.

What about the IC50 (LB1047-RCC) of the same compound?
Its IC50 is 50 µM.

What about the IC50 (LU-99A) of the same compound?
Its IC50 is 197 µM.

What about the IC50 (ME-180) of the same compound?
Its IC50 is 257 µM.

What about the IC50 (MEG-01) of the same compound?
The IC50 was 484 µM.

What about the IC50 (MOLT-16) of the same compound?
Its IC50 is 127 µM.

And the IC50 (NCI-H1770)?
The IC50 was greater than 4000 µM.

And the IC50 (NCI-H1838)?
Its IC50 is greater than 4000 µM.

And the IC50 (NCI-H2052)?
Its IC50 is 2880 µM.

What about the IC50 (NCI-H226) of the same compound?
The IC50 was greater than 4000 µM.

What about the IC50 (NCI-H520) of the same compound?
Its IC50 is 398 µM.

And the IC50 (NCI-H526)?
Its IC50 is 536 µM.

What about the IC50 (NCI-H82) of the same compound?
Its IC50 is greater than 4000 µM.

What about the IC50 (OAW-28) of the same compound?
Its IC50 is 2110 µM.

And the IC50 (OE19)?
The IC50 was greater than 4000 µM.

What about the IC50 (Panc1005) of the same compound?
Its IC50 is 264 µM.

And the IC50 (RERF-LC-MS)?
The IC50 was 1670 µM.

What about the IC50 (SF-295) of the same compound?
The IC50 was 344 µM.

And the IC50 (SK-MEL3)?
Its IC50 is 279 µM.

What about the IC50 (SK-N-FI) of the same compound?
Its IC50 is greater than 4000 µM.

What about the IC50 (SNB-75) of the same compound?
The IC50 was 438 µM.

What about the IC50 (SW-620) of the same compound?
The IC50 was 3230 µM.

What about the IC50 (SW948) of the same compound?
Its IC50 is 2620 µM.

What about the IC50 (T84) of the same compound?
The IC50 was greater than 4000 µM.

And the IC50 (639-V)?
The IC50 was 1520 µM.

And the IC50 (A388)?
The IC50 was 2460 µM.

And the IC50 (A-431)?
Its IC50 is 97.5 µM.

And the IC50 (A673)?
Its IC50 is 526 µM.

And the IC50 (BPH-1)?
Its IC50 is 276 µM.

What about the IC50 (C8166) of the same compound?
The IC50 was 1040 µM.

What about the IC50 (U-118-MG) of the same compound?
Its IC50 is 784 µM.

What about the IC50 (U-87 MG) of the same compound?
The IC50 was 147 µM.

And the IC50 (UACC-893)?
The IC50 was greater than 4000 µM.

And the IC50 (CAMA-1)?
Its IC50 is greater than 4000 µM.

For `CN(C)C/C=C/C(=O)Nc1cc2c(Nc3ccc(F)c(Cl)c3)ncnc2cc1O[C@H]1CCOC1` [AFATINIB], which IC50 (D-392MG) is on record?
Its IC50 is greater than 0.5 µM.

What about the IC50 (DK-MG) of the same compound?
Its IC50 is greater than 0.5 µM.

And the IC50 (EC-GI-10)?
Its IC50 is 0.0591 µM.

And the IC50 (EKVX)?
The IC50 was greater than 0.5 µM.

What about the IC50 (ES1) of the same compound?
Its IC50 is greater than 0.5 µM.

What about the IC50 (GCIY) of the same compound?
The IC50 was greater than 0.5 µM.

And the IC50 (GCT)?
Its IC50 is greater than 0.5 µM.

And the IC50 (HCC1187)?
The IC50 was greater than 0.5 µM.

What about the IC50 (HN) of the same compound?
The IC50 was 0.131 µM.

What about the IC50 (HSC-3) of the same compound?
Its IC50 is 0.212 µM.

What about the IC50 (HT1197) of the same compound?
The IC50 was greater than 0.5 µM.

And the IC50 (HT-3)?
The IC50 was greater than 0.5 µM.

And the IC50 (HuTu80)?
The IC50 was greater than 0.5 µM.

What about the IC50 (KM12) of the same compound?
The IC50 was greater than 0.5 µM.

What about the IC50 (KYSE-180) of the same compound?
The IC50 was 0.391 µM.

And the IC50 (KYSE-520 cell line)?
Its IC50 is greater than 0.5 µM.

What about the IC50 (L-428) of the same compound?
Its IC50 is greater than 0.5 µM.

And the IC50 (LAN-6)?
The IC50 was greater than 0.5 µM.

And the IC50 (LB1047-RCC)?
Its IC50 is greater than 0.5 µM.

What about the IC50 (LU-99A) of the same compound?
The IC50 was greater than 0.5 µM.

And the IC50 (ME-180)?
The IC50 was greater than 0.5 µM.

What about the IC50 (MEG-01) of the same compound?
The IC50 was greater than 0.5 µM.

What about the IC50 (MOLT-16) of the same compound?
The IC50 was greater than 0.5 µM.

And the IC50 (NCI-H1770)?
Its IC50 is 0.103 µM.

What about the IC50 (NCI-H1838) of the same compound?
The IC50 was greater than 0.5 µM.

And the IC50 (NCI-H2052)?
The IC50 was greater than 0.5 µM.

What about the IC50 (NCI-H226) of the same compound?
Its IC50 is greater than 0.5 µM.

What about the IC50 (NCI-H520) of the same compound?
The IC50 was greater than 0.5 µM.

What about the IC50 (NCI-H526) of the same compound?
Its IC50 is 0.0782 µM.

And the IC50 (NCI-H82)?
Its IC50 is greater than 0.5 µM.

And the IC50 (OAW-28)?
The IC50 was greater than 0.5 µM.

What about the IC50 (OE19) of the same compound?
The IC50 was greater than 0.5 µM.

What about the IC50 (Panc1005) of the same compound?
Its IC50 is greater than 0.5 µM.

What about the IC50 (RERF-LC-MS) of the same compound?
Its IC50 is greater than 0.5 µM.

And the IC50 (SF-295)?
Its IC50 is greater than 0.5 µM.

What about the IC50 (SK-MEL3) of the same compound?
Its IC50 is greater than 0.5 µM.

And the IC50 (SK-N-FI)?
The IC50 was greater than 0.5 µM.

What about the IC50 (SNB-75) of the same compound?
The IC50 was greater than 0.5 µM.

And the IC50 (SW-620)?
The IC50 was greater than 0.5 µM.

And the IC50 (SW948)?
Its IC50 is greater than 0.5 µM.

And the IC50 (T84)?
Its IC50 is greater than 0.5 µM.

What about the IC50 (639-V) of the same compound?
Its IC50 is greater than 0.5 µM.

What about the IC50 (A388) of the same compound?
The IC50 was 0.369 µM.

What about the IC50 (A-431) of the same compound?
The IC50 was 0.482 µM.

And the IC50 (A673)?
Its IC50 is greater than 0.5 µM.

And the IC50 (BPH-1)?
Its IC50 is 0.0599 µM.

What about the IC50 (C8166) of the same compound?
Its IC50 is greater than 0.5 µM.

What about the IC50 (U-118-MG) of the same compound?
Its IC50 is greater than 0.5 µM.

What about the IC50 (U-87 MG) of the same compound?
The IC50 was greater than 0.5 µM.

And the IC50 (UACC-893)?
Its IC50 is 0.119 µM.

And the IC50 (CAMA-1)?
Its IC50 is greater than 0.5 µM.
